The assay concerns MV-4-11 cells. The experiment in a line: Gene expression microarray analysis (Affymetrix PrimeView) and GSEA. It counts as cell-based, human. The note with it: ProbeSet 11717523_x_at; LIST B.

Take `Nc1ncn([C@@H]2O[C@H](CO)[C@@H](O)[C@H]2O)c(=O)n1` [azacitidine]: the “RFU, TMEM50B” value is listed as 81.58 RFU.

The values are drawn from PMC5218480 (PLoS ONE, 2017).
